Laboratory results as given in patent US20240254199A1, “MODIFIED MAMMALIAN CELLS” (Genentech, Inc., priority 2021, published 2024).

Key:
Format in all cases: cell-based, Chinese hamster
[1] = test system: mAb2-expressing CHO-K1 cells; assay: Fed-batch production of mAb2-expressing CHO cell line with PDGFRa inhibitor and/or insulin; settings: added on Day 3 of fed-batch production
Experimental: Fed-batch production cultures were performed as disclosed here and below in Example 2, with proprietary chemically defined medium using different vessels (e.g., tube-spin and AMBR15) along with bolus feeds on Days 3, 7 and 10 as previously mentioned (Hsu, Aulakh, Traul, & Yuk, 2012). Anti-cell aggregation agent was used in all cultures during production assay to prevent cell aggregation due to the release of DNA from dying cells. Cells were seeded at low (1-2×10^6 cells/mL) or high (10×10^6 cells/mL) seeding densities using lean or rich production media. Cultures were temperature shifted from 37° C. to 35° C. on Day 3. Titers were determined using Protein-A affinity chromatography with UV detection. Percent viability and viable cell count were determined using a Vi-Cell XR instrument (Beckman Coulter Item #383721).
(§1) It was previously shown that UPR-induced poor growth profiles correlated with a decrease in PDGFRa levels (FIGS. 19A and 19B) (Tung, et al., 2018). PDGFRa and insulin signaling pathways have overlapping downstream targets (FIG. 21A), however insulin signaling negatively regulates PDGFRa signaling (Cirri, et al., 2005). […]

empty host CHO-K1 cells = assay: Seed train growth of empty host CHO-K1 cells with PDGFRa inhibitor and/or insulin
Experimental: 1.5 million cells were lysed in 1× NP40 buffer (10 mM Tris, pH 8.0, 0.5% NP40, 150 mM NaCl, 10 mM DTT and 5 mM MgCl2) containing protease inhibitor cocktails (Roche EDTA free mini-tablets cocktail) for 20 min on ice. Lysates were subjected to sodium dodecyl sulfate-polyacrylamide gel electrophoresis (SDS-PAGE) (4-12% Tris glycine) and transferred to nitrocellulose membrane. After blocking with 5% milk in tris-buffered saline (TBS)-0.1% Tween buffer, the membranes were blotted with respective antibodies. Blots were visualized using HRP-conjugated anti-rabbit anti-body and SuperSignal West Dura Extended Duration Substrate. The following inhibitors were used: ATF6i (10 μM Ceapin-A7 (Gallagher, et al., 2016)), PERKi (10 μM Compound 39 (Axten, et al., 2012)), IRE1i6 (10 μM 4u8c (Cross, et al., 2012)), IRE1i9 (10 μM in-house/Genentech), PDGFRi (5-20 μM Abcam, AG-1296). The following antibodies were used: anti-PDGFRa (Cell Signaling Technology (CST), D1E1E), rabbit anti-BiP (C50B12, Cell Signaling Technology, 3177), rabbit anti-PERK (CST, C33E10), mouse anti-o-actin-HRP (AC-15) (Abcam, ab49900), rabbit anti-phospho-Akt (Ser473) (CST, D9E), rabbit anti-Akt (CST, 5G3), rabbit cleaved caspase3 (CST, asp175), goat anti-human IgG-HRP (MP Biomedicals, 0855252), rabbit IRE1a (CST, 14C10), mouse anti-phospho-IRE1, mouse anti-XBP1, rabbit anti-Bax (Abcam, ab32503), rabbit anti-Bak (CST, D4E4), donkey anti-rabbit HRP (Jackson ImmunoResearch Laboratories, Inc., 711-035-152), rabbit anti-sod2 (CST, D3×8F)
as §1

PDGFRa = PDGFRa protein (western blot) and mRNA (qPCR) levels upon chemical UPR induction; settings: seed train, mAb1-expressing CHO DG44 and CHO-K1, optimal pH
Experimental: 1.5 million cells were lysed in 1× NP40 buffer (10 mM Tris, pH 8.0, 0.5% NP40, 150 mM NaCl, 10 mM DTT and 5 mM MgCl2) containing protease inhibitor cocktails (Roche EDTA free mini-tablets cocktail) for 20 min on ice. Lysates were subjected to sodium dodecyl sulfate-polyacrylamide gel electrophoresis (SDS-PAGE) (4-12% Tris glycine) and transferred to nitrocellulose membrane. After blocking with 5% milk in tris-buffered saline (TBS)-0.1% Tween buffer, the membranes were blotted with respective antibodies. Blots were visualized using HRP-conjugated anti-rabbit anti-body and SuperSignal West Dura Extended Duration Substrate. The following inhibitors were used: ATF6i (10 μM Ceapin-A7 (Gallagher, et al., 2016)), PERKi (10 μM Compound 39 (Axten, et al., 2012)), IRE1i6 (10 μM 4u8c (Cross, et al., 2012)), IRE1i9 (10 μM in-house/Genentech), PDGFRi (5-20 μM Abcam, AG-1296). […]
An interesting phenomenon was previously described where activation of UPR in seed train culture, triggered by lower pH conditions in a particular CHO cell line, negatively affected culture growth in production media at target pH (Tung, et al., 2018). When exposed to low pH conditions, high intracellular BiP levels were detected in this cell line that correlated to low growth profiles during production and poor bioprocess outcomes (Tung, et al., 2018). […]

Row | Compound | cell growth and viability in fed-batch production [1] | Akt phosphorylation (empty host CHO-K1 cells; insulin added to cultures with PDGFRa inhibitor, western blot) | cellular growth of cultures treated with the PDGFRa inhibitor (empty host CHO-K1 cells; insulin added to seed train cultures with PDGFRa inhibitor) | PDGFRa levels (protein and mRNA) (PDGFRa) | reduction of cell growth (empty host CHO-K1 cells; 20 μM, empty host CHO-K1 cells, seed train media, 4 days)
1 | insulin | partially rescued the observed cell growth inhibition | increased Akt phosphorylation | partially rescued cellular growth |  | 
2 | Tunicamycin |  |  |  | reduced at both the protein and mRNA levels | 
3 | COc1cc2ncc(-c3ccccc3)nc2cc1OC [PDGFRa inhibitor, AG-1296] | significantly decreased cell growth, without affecting cell viability |  |  |  | approximately 50%
